The source of these data is patent publication US10947271B2, “Antibacterial agents” (THE UNIVERSITY OF QUEENSLAND, priority 2014, dated 2021).

Series [1] can be described thus: Stability of compounds in human plasma. The settings on record: 50% human plasma/PBS pH 7.4, 37° C. How it is done:
Briefly test compounds (20 μM) were prepared from a 1 mM stock solution. The human plasma sample (200 μl) was diluted with 160 μl phosphate-buffer saline (PBS, pH 7.4) to a concentration of 50% v/v before use. Solutions were then vortexed and placed on a 37° C. shaker and shaken gently for 10 minutes. 40 μl of the test compounds were then added to the plasma sample and vortexed. For the reaction time t=0 hour, 50 μl of sample was immediately transferred into an eppendorf tube and quenched with 150 μl cold acetonitrile. The remaining plasma solution was incubated and shaken at 37° C. Other samples were collected at time points of 0, 1, 3, 6 and 24 hours whereby 50 μl aliquots were removed and quenched with 150 μl cold acetonitrile. All samples were placed in a 4° C. fridge for 10 minutes then centrifuged at 3000 rpm for 15 minutes. The supernatant (100 μl) was transferred to a glass vial insert for LCMS analysis. The percentage of test compounds remaining at the individual time points relative to sample at time point 0 hour were reported.
Plasma: Human Plasma (Pooled Normal Human Plasma Heparin Anticoagulant 50 mL (IPLA-2 N-04 lot IR09-1001, originally from Innovative Research and imported by BioCore).
All compounds in 100% water (40 μL in 400 μL assay volume equivalent […])
Compounds: 40 μL of the vancomycin derivative solution was added to 160 μL of PBS (pH 7.4) respectively in an Eppendorf tube. 600 μL of cold acetonitrile was added, the tube vortexed and transferred to a glass vial for LC-MS analysis.
Eucatropine: 200 μL of plasma and 190 μL of buffer were vortexed, shaken at 37° C. for 10 minutes. 10 μL of eucatropine solution was then added and the tube vortexed. A 50 μL aliquot was immediately transferred to an Eppendorf tube, 150 μL of cold acetonitrile added and the tube transferred to a 4° C. fridge for 10 minutes. The remaining plasma solution was then transferred to the incubator and shaken at 37° C. The tube was retrieved from the fridge, centrifuged at 3000 rpm for 15 min and 100 μL of supernatant transferred to a glass vial insert for LC-MS analysis. 50 μL aliquots were processed as above at 1, […], 3, 6 and 24 hours and 5 μL was injected into triple quad MS system for analysis. Vancomycin derivatives: 200 μL of plasma and 160 μL of buffer were vortexed and shaken at 37° C. for 10 minutes. 40 μL of compound was then added and the sample was processed as above.

For a further series, the system named is MRSA (Strain ATCC 43300). Briefly: Murine thigh infection model (MRSA). In kind it is in vivo, Staphylococcus aureus. Particulars: neutropenic CD1 mice.
For series [2], the system named is Enterococcus faecium MDR Van A ATCC 51559. Briefly: MIC assay, E. faecium MDR Van A ATCC 51559. In kind it is cell-based. Particulars: 24 h incubation, visual reading. An outline of the steps:
(§1)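 Overnight MHB cultures at 37° C were diluted 40-fold and grown 2-3 hrs to mid-log, then added at 5×10e5 CFU/mL to twofold compound dilutions (8 to 0.003 μg/ml). Plates were incubated 24 h at 37° C and MIC scored by eye.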

In series [3] the test system is Staphylococcus aureus MRSA ATCC 43300. Put plainly: MIC assay, S. aureus MRSA ATCC 43300. In kind it is cell-based. The settings on record: 24 h incubation, visual reading. An outline of the steps: as §1
In series [4] the test system is Streptococcus pneumoniae MDR ATCC 700677. Briefly: MIC assay, S. pneumoniae MDR ATCC 700677. The settings on record: 24 h incubation, visual reading. In kind it is cell-based. An outline of the steps:
as §1

Where [5] appears, read: single subcutaneous dose 25 mg/kg.
The mark [6] stands for this setting: single subcutaneous dose 50 mg/kg.
Where [7] appears, read: single subcutaneous dose 10 mg/kg.

Regarding `CN[C@H](CC(C)C)C(=O)N[C@H]1C(=O)N[C@@H](CC(N)=O)C(=O)N[C@H]2C(=O)N[C@H]3C(=O)NC(C(=O)N[C@H](C(=O)O)c4cc(O)cc(O)c4-c4cc3ccc4O)[C@H](O)c3ccc(c(Cl)c3)Oc3cc2cc(c3OC2OC(CO)C(O)C(O)C2OC2CC(C)(N)C(O)C(C)O2)Oc2ccc(cc2Cl)[C@H]1O` (stereo partly drawn) [MCC_000095, vancomycin, reference compound], the “% compound remaining after incubation in 50% human plasma” value (shortened to “% compound remaining after incubation”) came out at 100% in series [1] (0 h (reference time point)); 176% in series [1] (1 h); 145% in series [1] (3 h); 149% in series [1] (6 h); 65% in series [1] (24 h). Besides, the “Average Reduction log Δcfu MRSA/thigh after 26 h” value is recorded as “x (x = 0-2)” in the series with MRSA (Strain ATCC 43300) (setting [5]) and “xxx (xxx = 4-6)” in the series with MRSA (Strain ATCC 43300) (single subcutaneous dose 200 mg/kg).

Regarding `CNC(CC(C)C)C(=O)NC1C(=O)NC(CC(N)=O)C(=O)NC2C(=O)NC3C(=O)NC(C(=O)NC(C(=O)NCCCCC(NC(=O)C(CCCCN)NC(=O)C(CCCCN)NC(=O)c4ccc(Oc5ccccc5)cc4)C(=O)O)c4cc(O)cc(O)c4-c4cc3ccc4O)C(O)c3ccc(c(Cl)c3)Oc3cc2cc(c3OC2OC(CO)C(O)C(O)C2OC2CC(C)(N)C(O)C(C)O2)Oc2ccc(cc2Cl)C1O` (stereo not drawn) [MCC_000214, (4-PhO-PhCO)-KK-K(Vanc)-OH], the “Minimum Inhibitory Concentration (MIC) E. faecium ATCC51559” value in series [2] is recorded as “x (x = >4)”. Also, the “% compound remaining after incubation” value in series [1] (0 h (reference time point)) was determined as 100%; in series [1] (1 h), 101%; in series [1] (6 h), 107%; in series [1] (24 h), 111%. Moreover, in series [3], the “Minimum Inhibitory Concentration (MIC) Staph. aureus ATCC43300” value is “xxx (xxx = 0.1-<1)”. Besides, the “Average Reduction log Δcfu MRSA/thigh after 26 h” value in the series with MRSA (Strain ATCC 43300) (setting [6]) is given as “xxx (xxx = 4-6)”. Further, the “Minimum Inhibitory Concentration (MIC) S. pneumoniae ATCC 700677” value in series [4] was “xxx (xxx = 0.1-<1)”.

Take `CCCCCCCCCCC(=O)N[C@@H](CCCCN)C(=O)N[C@@H](CCCCNC(=O)[C@H]1NC(=O)[C@H]2NC(=O)[C@H](NC(=O)[C@@H]3NC(=O)[C@H](CC(N)=O)NC(=O)[C@H](NC(=O)[C@@H](CC(C)C)NC)[C@H](O)c4ccc(c(Cl)c4)Oc4cc3cc(c4O[C@@H]3O[C@H](CO)[C@@H](O)[C@H](O)[C@H]3O[C@H]3C[C@](C)(N)[C@H](O)[C@H](C)O3)Oc3ccc(cc3Cl)[C@H]2O)c2ccc(O)c(c2)-c2c(O)cc(O)cc21)C(=O)O` [MCC_000080, nC10CO-K-K(Vanc)-OH]: the “Minimum Inhibitory Concentration (MIC) E. faecium ATCC51559” value in series [2] is “x (x = >4)”. In addition, the “% compound remaining after incubation” value stood at 100% in series [1] (0 h (reference time point)); 101% in series [1] (1 h); 101% in series [1] (3 h); 100% in series [1] (6 h); 89% in series [1] (24 h). Besides, the “Minimum Inhibitory Concentration (MIC) Staph. aureus ATCC43300” value in series [3] is “xxx (xxx = 0.1-<1)”. Besides, the “Average Reduction log Δcfu MRSA/thigh after 26 h” value in the series with MRSA (Strain ATCC 43300) (setting [7]) is “xxx (xxx = 4-6)”; in the series on MRSA (Strain ATCC 43300) (setting [5]) it was “xxxx (xxxx = >6)”. Besides, in series [4], the “Minimum Inhibitory Concentration (MIC) S. pneumoniae ATCC 700677” value was “xxx (xxx = 0.1-<1)”.

Turning to `CCCCCCCCCC(=O)N[C@@H](CCCCN)C(=O)N[C@@H](CCCCN)C(=O)NCCCNC(=O)[C@H]1NC(=O)[C@H]2NC(=O)[C@H](NC(=O)[C@@H]3NC(=O)[C@H](CC(N)=O)NC(=O)[C@H](NC(=O)[C@@H](CC(C)C)NC)[C@H](O)c4ccc(c(Cl)c4)Oc4cc3cc(c4O[C@@H]3O[C@H](CO)[C@@H](O)[C@H](O)[C@H]3O[C@H]3C[C@](C)(N)[C@H](O)[C@H](C)O3)Oc3ccc(cc3Cl)[C@H]2O)c2ccc(O)c(c2)-c2c(O)cc(O)cc21` [MCC_005084], the “Minimum Inhibitory Concentration (MIC) E. faecium ATCC51559” value in series [2] is listed as “xx (xx = 1-4)”. Also, the “Minimum Inhibitory Concentration (MIC) Staph. aureus ATCC43300” value in series [3] is given as “xxxx (xxxx = 0.01-<0.1)”. The “Average Reduction log Δcfu MRSA/thigh after 26 h” value in the series with MRSA (Strain ATCC 43300) (setting [7]) is on record as “xxx (xxx = 4-6)”. Also, the “Minimum Inhibitory Concentration (MIC) S. pneumoniae ATCC 700677” value in series [4] is recorded as “xxxx (xxxx = 0.01-<0.1)”.

Take `CCCCCCCCCC(=O)N[C@@H](CCCCN)C(=O)N[C@@H](CCCCN)C(=O)N[C@@H](CCCCN)C(=O)NCCNC(=O)[C@H]1NC(=O)[C@H]2NC(=O)[C@H](NC(=O)[C@@H]3NC(=O)[C@H](CC(N)=O)NC(=O)[C@H](NC(=O)[C@@H](CC(C)C)NC)[C@H](O)c4ccc(c(Cl)c4)Oc4cc3cc(c4O[C@@H]3O[C@H](CO)[C@@H](O)[C@H](O)[C@H]3O[C@H]3C[C@](C)(N)[C@H](O)[C@H](C)O3)Oc3ccc(cc3Cl)[C@H]2O)c2ccc(O)c(c2)-c2c(O)cc(O)cc21` [MCC_005181]: the “Minimum Inhibitory Concentration (MIC) E. faecium ATCC51559” value in series [2] was “xx (xx = 1-4)”. Moreover, the “Minimum Inhibitory Concentration (MIC) Staph. aureus ATCC43300” value in series [3] was “xxxxx (xxxxx = <0.01)”. Besides, the “Average Reduction log Δcfu MRSA/thigh after 26 h” value in the series with MRSA (Strain ATCC 43300) (setting [7]) is listed as “xx (xx = 2-4)”. The “Minimum Inhibitory Concentration (MIC) S. pneumoniae ATCC 700677” value in series [4] is “xxxx (xxxx = 0.01-<0.1)”.

On to `CCCCCCCCCCC(=O)NC(CCCCN)C(=O)NC(CCCCN)C(=O)NC(CCCCNC(=O)C1NC(=O)C2NC(=O)C(NC(=O)C3NC(=O)C(CC(N)=O)NC(=O)C(NC(=O)C(CC(C)C)NC)C(O)c4ccc(c(Cl)c4)Oc4cc3cc(c4OC3OC(CO)C(O)C(O)C3OC3CC(C)(N)C(O)C(C)O3)Oc3ccc(cc3Cl)C2O)c2ccc(O)c(c2)-c2c(O)cc(O)cc21)C(N)=O` (stereo not drawn) [MCC_000455], for which, in series [2], the “Minimum Inhibitory Concentration (MIC) E. faecium ATCC51559” value was “xxx (xxx = 0.1-<1)”. Moreover, the “Minimum Inhibitory Concentration (MIC) Staph. aureus ATCC43300” value in series [3] is “xxxxx (xxxxx = <0.01)”. For the same molecule, the “Average Reduction log Δcfu MRSA/thigh after 26 h” value in the series on MRSA (Strain ATCC 43300) (setting [5]) is on record as “xxx (xxx = 4-6)”. Moreover, in series [4], the “Minimum Inhibitory Concentration (MIC) S. pneumoniae ATCC 700677” value was “xxxxx (xxxxx = <0.01)”.

Take `CNC(CC(C)C)C(=O)NC1C(=O)NC(CC(N)=O)C(=O)NC2C(=O)NC3C(=O)NC(C(=O)NC(C(=O)NCCCNC(=O)C(CCCCN)NC(=O)C(CCCCN)NC(=O)CCCOc4ccccc4)c4cc(O)cc(O)c4-c4cc3ccc4O)C(O)c3ccc(c(Cl)c3)Oc3cc2cc(c3OC2OC(CO)C(O)C(O)C2OC2CC(C)(N)C(O)C(C)O2)Oc2ccc(cc2Cl)C1O` (stereo not drawn) [MCC_005365]: in series [2], the “Minimum Inhibitory Concentration (MIC) E. faecium ATCC51559” value is reported as “x (x = >4)”. The “Minimum Inhibitory Concentration (MIC) Staph. aureus ATCC43300” value in series [3] was “xxx (xxx = 0.1-<1)”. Besides, in the series on MRSA (Strain ATCC 43300) (setting [6]), the “Average Reduction log Δcfu MRSA/thigh after 26 h” value is “xx (xx = 2-4)”. In addition, in series [4], the “Minimum Inhibitory Concentration (MIC) S. pneumoniae ATCC 700677” value is “xxx (xxx = 0.1-<1)”.

Regarding `CCCCCCCC(=O)N[C@@H](CCCCN)C(=O)NCCCNC(=O)[C@H]1NC(=O)[C@H]2NC(=O)[C@H](NC(=O)[C@@H]3NC(=O)[C@H](CC(N)=O)NC(=O)[C@H](NC(=O)[C@@H](CC(C)C)NC)[C@H](O)c4ccc(c(Cl)c4)Oc4cc3cc(c4O[C@@H]3O[C@H](CO)[C@@H](O)[C@H](O)[C@H]3O[C@H]3C[C@](C)(N)[C@H](O)[C@H](C)O3)Oc3ccc(cc3Cl)[C@H]2O)c2ccc(O)c(c2)-c2c(O)cc(O)cc21` [MCC_005202], in series [2], the “Minimum Inhibitory Concentration (MIC) E. faecium ATCC51559” value is “x (x = >4)”. The “Minimum Inhibitory Concentration (MIC) Staph. aureus ATCC43300” value in series [3] is “xxx (xxx = 0.1-<1)”. Moreover, the “Average Reduction log Δcfu MRSA/thigh after 26 h” value in the series with MRSA (Strain ATCC 43300) (setting [7]) is recorded as “xx (xx = 2-4)”. Besides, in series [4], the “Minimum Inhibitory Concentration (MIC) S. pneumoniae ATCC 700677” value is reported as “xxx (xxx = 0.1-<1)”.
